Consider 20 molecules from PubChem BioAssay (NCI).

What all share (test): NCI anticancer screen, dose series, 48 h
Experiment [1] concerns DLD-1 colon.
The test system of experiment [2] is DMS 114 small cell lung.
In experiment [3] the test system is KM20L2 colon.
The test system of experiment [4] is LXFL 529 NSCLC.
For experiment [5], the system named is M19-MEL melanoma.
Experiment [6] concerns BT-549 breast.
Experiment [7] deals with DU-145 prostate.
For experiment [8], the system named is PC-3 prostate.

Each structure is given as a SMILES string. Values joined by “and” are separate entries in the source; they are usually repeats but may differ in a detail not shown here. Equal values may be shown once.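 Values below derive from 48-hour exposures of cells grown in 96-well plates, with endpoints linearly interpolated between the two concentrations bracketing the appropriate inhibition level. GI50 = concentration required for 50% inhibition of growth. TGI is the concentration that stops growth completely.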 A value given as a limit tells only on which side of the number the result lay.

On to `CC(=O)OC1(C#N)CC2OC1C1C2N1C(=O)c1ccccc1` (stereo unspecified), for which the TGI in experiment [1], in experiment [2], in experiment [3], in experiment [4] and in experiment [5] was greater than 100 µM in each case.
As for `O=C1Cc2cc(CCn3ccnc3)c(Cl)cc2N1`, the results for the GI50 in experiment [6], in experiment [7] and in experiment [8] were 9.51 µM, 8.02 µM and 35.6 µM, respectively. For the same molecule, the TGI in experiment [6], in experiment [7] and in experiment [8] was greater than 100 µM each time.
With `Nc1nc(-c2ccccc2)c(-c2ccccc2)c(-c2nc(N)nc(-c3ccccc3)c2-c2ccccc2)n1`, the TGI in experiment [6], in experiment [7] and in experiment [8] was greater than 100 µM each time.
On to `COc1cc2c(cc1OCCCCNC(=O)c1cc3ccccc3[nH]1)N=CC1CCCN1C2=O` (stereo unspecified), for which the results for the GI50 in experiment [6], in experiment [7] and in experiment [8] were 8.79 µM, 5.31 µM and 22 µM, respectively. Further, the figures for the TGI in experiment [6], in experiment [7] and in experiment [8] were 51.1 µM, 69.8 µM and greater than 100 µM, respectively.
Consider `N/C(=N\O)c1ncc(-c2ccc(C(F)(F)F)cc2)c(NC2CCCCCC2)n1`, for which the GI50 in experiment [6] was 4.54 µM; in experiment [7], 6.78 µM and 3.38 µM; in experiment [8], 5.34 µM and 1.92 µM. In addition, the values for the TGI in experiment [6], in experiment [7] and in experiment [8] were 18.2 µM, 16.1 µM and 12.1 µM, respectively.
Take `COc1ccc2c(c1)C(=O)c1c-2n(CCCN=[N+]=[N-])c(=O)c2ccccc12`: the GI50 is 89.9 µM in experiment [6], 61.5 µM in experiment [7] and 51.4 µM in experiment [8]. Besides, the TGI in experiment [6], in experiment [7] and in experiment [8] was greater than 100 µM each time.
As for `O=C(Nc1cccc(Cl)c1)Nc1cccc(Cl)c1`, in experiment [6], the GI50 was greater than 100 µM and the TGI was greater than 100 µM. In experiment [8], the GI50 is 2.54 µM and the TGI is greater than 100 µM.
On to `O=S(=O)(NCCNc1nccc(-c2c(-c3cccc(O)c3)nc3sccn23)n1)c1ccc(F)cc1`, for which the GI50 in experiment [6] is 5.32 µM; in experiment [7], 8.94 µM; in experiment [8] it was 5.66 µM. The TGI in experiment [6] came to 30 µM; in experiment [7], 38.7 µM; in experiment [8], 63.5 µM.
For the molecule `O=C1NC(=NCc2cccs2)SC1Cc1ccc2ncccc2c1` (stereo unspecified), the GI50 is 20.5 µM in experiment [6], greater than 25 µM in experiment [7] and 15.6 µM in experiment [8]. Further, the TGI in experiment [6], in experiment [7] and in experiment [8] was greater than 25 µM in each case.
`O=C1NC(=NCC(CO)c2ccccc2)S/C1=C\c1ccc2ncccc2c1` (stereo unspecified): the GI50 was 13.3 µM in experiment [6], 18.4 µM in experiment [7] and greater than 25 µM in experiment [8]. The TGI in experiment [6], in experiment [7] and in experiment [8] was greater than 25 µM throughout.
On to `C=CCN1C(=O)/C(=c2\sc3n(c2=O)C2C(NN=3)N(CC)C(=O)N2CC)c2ccccc21` (stereo unspecified), for which the GI50 is 1.65 µM in experiment [6], 0.59 µM in experiment [7] and 0.548 µM in experiment [8]. The TGI in experiment [6] is greater than 75.6 µM; in experiment [7], greater than 37.3 µM; in experiment [8] it was greater than 100 µM.
As for `CCOc1ccc(Cc2nccc3cc(OCC)c(OCC)cc23)cc1OCC`, the GI50 in experiment [6] is 5.16 µM; in experiment [7], 12.9 µM; in experiment [8], 4.41 µM. Also, the figures for the TGI in experiment [6], in experiment [7] and in experiment [8] were 19.1 µM, 31.8 µM and 33.4 µM, respectively.
With `COC1=C(OC)C(=O)C(/C=C(\C)C(=O)O)=C(C)C1=O`, the GI50 in experiment [6], in experiment [7] and in experiment [8] was greater than 100 µM throughout. Besides, the TGI in experiment [6], in experiment [7] and in experiment [8] was greater than 100 µM in each case.
Turning to `Cc1ccc(-n2c3c(c4c(CN5CCCCC5)c(O)ccc42)CCc2ccccc2C3=O)cc1`, the GI50 is greater than 100 µM in experiment [6], greater than 100 µM in experiment [7] and 59.2 µM in experiment [8]. The TGI in experiment [6], in experiment [7] and in experiment [8] was greater than 100 µM throughout.
Regarding `Oc1nc(NCCc2ccccc2)sc1/C=C1\C=Nc2ncccc21`, the GI50 is 1.23 µM and 1.35 µM in experiment [6]; 2.96 µM and 3.09 µM in experiment [7]; 3.27 µM and 3.87 µM in experiment [8]. The TGI in experiment [6] was 3.26 µM and 3.34 µM; in experiment [7] it was 12.8 µM and 16.5 µM; in experiment [8], 12.2 µM and 19 µM.
For `c1cncc(CNc2ccccc2-c2nnc(Nc3ccc4c(c3)OCO4)o2)c1`, the GI50 is 0.604 µM in experiment [6], 0.197 µM in experiment [7] and 0.0898 µM in experiment [8]. Moreover, the TGI was greater than 100 µM in experiment [6], greater than 100 µM in experiment [7] and greater than 76.9 µM in experiment [8].
For the molecule `Clc1ccc(-c2nc3c(-c4ccc(Cl)cc4)nc(-c4ccccc4)cn3c2-c2ccc(Cl)cc2)cc1`, the GI50 is 14.2 µM in experiment [6], greater than 50 µM in experiment [7] and greater than 50 µM in experiment [8]. For the same molecule, the TGI in experiment [6], in experiment [7] and in experiment [8] was greater than 50 µM each time.
`CC(=O)Nc1ccc2nncnc2c1`: the TGI in experiment [6], in experiment [7] and in experiment [8] was greater than 100 µM in each case.
Regarding `C=C1CC[C@@H]2C(C)(C)[C@@H](O)CC[C@@]2(C)[C@@H]1COc1ccc2ccc(=O)oc2c1`, the GI50 is 6.65 µM in experiment [6], 17.3 µM in experiment [7] and 5.71 µM in experiment [8]. Further, the TGI in experiment [6] stood at 20.1 µM; in experiment [7] it was 48.2 µM; in experiment [8], 21.8 µM.
In the case of `CSC1=Nc2c(c(C)c(-c3ccccc3)n2COC(CO)CO)C2=NC(=O)C(C)N12` (stereo unspecified), the GI50 in experiment [6], in experiment [7] and in experiment [8] was greater than 100 µM throughout. Further, the TGI in experiment [6], in experiment [7] and in experiment [8] was greater than 100 µM throughout.
